Assay results: patent publication US20240132464A1, “HETEROCYCLIC COMPOUNDS AS E3 LIGASE INHIBITORS” (Accutar Biotechnology Inc., priority 2022, published 2024)

Molecular target: T1, GID4 (Uniprot ID: Q81VV7, residues 124-289) (Homo sapiens, UniProt Q8IVV7)
T1 construct: GID4 (Uniprot ID: Q81VV7, residues 124-289)
T1 sequence (Q8IVV7 124-289): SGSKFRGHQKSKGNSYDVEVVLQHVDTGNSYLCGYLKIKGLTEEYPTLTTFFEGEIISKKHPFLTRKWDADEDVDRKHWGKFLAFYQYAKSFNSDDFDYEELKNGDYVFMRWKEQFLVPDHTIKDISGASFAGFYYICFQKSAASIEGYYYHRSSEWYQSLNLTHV
Assay: GID4 competitive binding assay (AlphaScreen, GID4/degron peptide PGLW)
Conditions: 24 nM GID4, 48 nM biotinylated degron peptide PGLW, 4° C., read-out: IC50 (Inhibition of GID4/Degron binding by test compounds)
Outline: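 Displacement of biotin-tagged degron tetrapeptide PGLW (48 nM) from C-terminally 6His-tagged GID4 124-289 (24 nM) read by AlphaScreen proximity signal. Compound incubation 2 h, then beads 1 h, all at 4 °C, pH 7.5, 2% DMSO final; background-corrected inhibition fitted with variable slope for IC50.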

| Compound | IC50 [nM] |
| --- | --- |
| CC(C)c1cc(-c2cc(-c3ccnn3C)c3ccnc(-c4cc[nH]n4)c3n2)cc(N)n1 [Compound 366, 6-isopropyl-4-(4-(1-methyl-1H-pyrazol-5-yl)-8-(1H-pyrazol-3-yl)-1,7-naphthyridin-2-yl)pyridin-2-amine] | 500 to 5000 |
| CCc1cc(N2CCNC(c3cnc4ccccn34)C2)nc(N)n1 (single isomer, unassigned) [Compound 27, (R/S)-4-ethyl-6-(3-(imidazo[1,2-a]pyridin-3-yl)piperazin-1-yl)pyrimidin-2-amine] | > 5000 |
| CN(C)CCCNC(=O)c1cc(F)c(-c2cc(O)c3ncccc3c2)cc1Cl [Compound 315, 2-chloro-N-(3-(dimethylamino)propyl)-5-fluoro-4-(8-hydroxyquinolin-6-yl)benzamide] | < 500 |
| CN1CCC(CNC(=O)c2ccc(-c3cc(O)c4ncccc4c3)cc2)CC1 [Compound 300, 4-(8-hydroxyquinolin-6-yl)-N-((1-methylpiperidin-4-yl)methyl)benzamide] | < 500 |
| CC(C)c1nc(N)cc(N2CCCC(c3cnc4ccccn34)C2)n1 (single isomer, unassigned) [Compound 142, R or S-6-(3-(imidazo[1,2-a]pyridin-3-yl)piperidin-1-yl)-2-isopropylpyrimidin-4-amine] | < 500 |
| CNc1cc(N2CCN(C)[C@@H](c3ccccc3Br)C2)nc(NC)n1 (stereo in doubt) [Compound 81, (S/R)-6-(3-(2-bromophenyl)-4-methylpiperazin-1-yl)-N2,N4-dimethylpyrimidine-2,4-diamine] | 500 to 5000 |
| CC(C)c1cc(N2CC[C@@H](F)[C@@H](c3ccccc3Br)C2)nc(N)n1 [Compound 221, 4-((3S,4R)-3-(2-bromophenyl)-4-fluoropiperidin-1-yl)-6-isopropylpyrimidin-2-amine] | < 500 |
| Nc1nc(NC2CC2)cc(N2CCO[C@@H](c3ccccc3Br)C2)n1 (stereo in doubt) [Compound 98, (S/R)-6-(2-(2-bromophenyl)morpholino)-N4-cyclopropylpyrimidine-2,4-diamine] | < 500 |
| CC(C)c1cc(N2CCNC(c3cnc4ccccn34)C2)nc(N)n1 (centres unmarked) [Compound 32, 4-(3-(imidazo[1,2-a]pyridin-3-yl)piperazin-1-yl)-6-isopropylpyrimidin-2-amine] | < 500 |
| CNc1cc(N2CCC[C@H](c3ccccc3Br)C2)nc(NC)n1 (stereo in doubt) [Compound 83, (R/S)-6-(3-(2-bromophenyl)piperidin-1-yl)-N2,N4-dimethylpyrimidine-2,4-diamine] | 500 to 5000 |
| CC(C)c1cc(N2CCNC(c3nnc4ccccn34)C2)nc(N)n1 (centres unmarked) [Compound 188, 4-(3-([1,2,4]triazolo[4,3-a]pyridin-3-yl)piperazin-1-yl)-6-isopropylpyrimidin-2-amine] | > 5000 |
| CC(C)c1cc(N2CCNC(c3cc(C(=O)NCCN(C)C)ccc3Br)C2)nc(N)n1 (racemic) [Compound 21, R or S-3-(4-(2-amino-6-isopropylpyrimidin-4-yl)piperazin-2-yl)-4-bromo-N-(2-(dimethylamino)ethyl)benzamide] | < 500 |
| Nc1cc(N2CCNC(c3cc(N4CCC(CO)CC4)ccc3Br)C2)nc(N)n1 (centres unmarked) [Compound 33, (1-(4-bromo-3-(4-(2,6-diaminopyrimidin-4-yl)piperazin-2-yl)phenyl)piperidin-4-yl)methanol] | < 500 |
| CC(C)c1cc(N2CCCC(c3n[nH]c4ccccc34)C2)nc(N)n1 (centres unmarked) [Compound 251, 4-(3-(1H-indazol-3-yl)piperidin-1-yl)-6-isopropylpyrimidin-2-amine] | 500 to 5000 |
| CC(C)c1cc(N2CCN(C)C(c3cnc4ccccn34)C2)nc(N)n1 (single isomer, unassigned) [Compound 105, (S/R)-4-(3-(imidazo[1,2-a]pyridin-3-yl)-4-methylpiperazin-1-yl)-6-isopropylpyrimidin-2-amine] | > 5000 |
| CC(C)c1cc(N2CCNC(c3cnn4ccccc34)C2)nc(N)n1 (centres unmarked) [Compound 22, 4-isopropyl-6-(3-(pyrazolo[1,5-a]pyridin-3-yl)piperazin-1-yl)pyrimidin-2-amine] | < 500 |
| CNc1cc(N2CCN[C@@H](c3ccccc3)C2)nc(N)n1 (racemic) [Compound 129, (S/R)-N4-methyl-6-(3-phenylpiperazin-1-yl)pyrimidine-2,4-diamine] | 500 to 5000 |
| CN(C)CCCNC(=O)c1cccc(-c2ccc3ccnc(N)c3n2)c1 [Compound 340, 3-(8-amino-1,7-naphthyridin-2-yl)-N-(3-(dimethylamino)propyl)benzamide] | > 5000 |
| Cc1c(-c2ccc(Br)c(C3CN(c4cc(C(C)C)nc(N)n4)CCN3)c2)cnn1C (single isomer, unassigned) [Compound 7, R or S-4-(3-(2-bromo-5-(1,5-dimethyl-1H-pyrazol-4-yl)phenyl)piperazin-1-yl)-6-isopropylpyrimidin-2-amine] | 500 to 5000 |

| Compound | IC50 [nM] |
| --- | --- |
| Nc1nccc2ccc(-c3ccc4[nH]nc(C(=O)N5CCC(N)CC5)c4c3)cc12 [Compound 339, (5-(1-aminoisoquinolin-7-yl)-1H-indazol-3-yl)(4-aminopiperidin-1-yl)methanone] | < 500 |
| Cc1c(-c2ccc(Br)c(C3CN(c4cc(N)nc(N)n4)CCN3)c2)cnn1C (single isomer, unassigned) [Compound 4, (R/S)-6-(3-(2-bromo-5-(1,5-dimethyl-1H-pyrazol-4-yl)phenyl)piperazin-1-yl)pyrimidine-2,4-diamine] | 500 to 5000 |
| CN(C)CCCNC(=O)c1ccc(-c2cc(O)c3ncccc3c2)nc1 [Compound 294, N-(3-(dimethylamino)propyl)-6-(8-hydroxyquinolin-6-yl)nicotinamide] | < 500 |
| CC(C)c1cc(N2CCCC(c3nnc4ccccn34)C2)nc(N)n1 (centres unmarked) [Compound 194, 4-(3-([1,2,4]triazolo[4,3-a]pyridin-3-yl)piperidin-1-yl)-6-isopropylpyrimidin-2-amine] | 500 to 5000 |
| CCc1ccccc1C1CN(c2cc(C(C)C)nc(N)n2)CCN1 (centres unmarked) [Compound 168, 4-(3-(2-ethylphenyl)piperazin-1-yl)-6-isopropylpyrimidin-2-amine] | 500 to 5000 |
| CC(C)c1cc(N2CCNC(c3cc(C(=O)N4CCN(C)CC4)ccc3Br)C2)nc(N)n1 (single isomer, unassigned) [Compound 18, (S/R)-(3-(4-(2-amino-6-isopropylpyrimidin-4-yl)piperazin-2-yl)-4-bromophenyl)(4-methylpiperazin-1-yl)methanone] | 500 to 5000 |
| CNc1cc(N2CCCC(n3nc4ccccc4n3)C2)nc(N)n1 (centres unmarked) [Compound 259, 6-(3-(2H-benzo[d][1,2,3]triazol-2-yl)piperidin-1-yl)-N4-methylpyrimidine-2,4-diamine] | > 5000 |
| COc1cc(CNC(=O)c2n[nH]c3ccc(-c4ccc5ccnc(N)c5c4)cc23)ccn1 [Compound 326, 5-(1-aminoisoquinolin-7-yl)-N-((2-methoxypyridin-4-yl)methyl)-1H-indazole-3-carboxamide] | < 500 |
| CN(C)CCCNC(=O)c1cnc(-c2cc(O)c3ncccc3c2)cn1 [Compound 276, N-(3-(dimethylamino)propyl)-5-(8-hydroxyquinolin-6-yl)pyrazine-2-carboxamide] | < 500 |
| CN1CCC(C)(NC(=O)c2n[nH]c3ccc(-c4ccc5ccnc(N)c5c4)cc23)CC1 [Compound 10, 5-(1-aminoisoquinolin-7-yl)-N-(1,4-dimethylpiperidin-4-yl)-1H-indazole-3-carboxamide] | < 500 |
| Nc1nccc2ccc(N3CCC(C(=O)N4CCCC4)C3)cc12 (centres unmarked) [Compound 354, (1-(1-aminoisoquinolin-7-yl)pyrrolidin-3-yl)(pyrrolidin-1-yl)methanone] | > 5000 |
| Nc1cc(N2CCCC(c3cnc4ccncn34)C2)nc(N)n1 (centres unmarked) [Compound 258, 6-(3-(imidazo[1,2-c]pyrimidin-3-yl)piperidin-1-yl)pyrimidine-2,4-diamine] | 500 to 5000 |
| CN(C)CCCNC(=O)c1ccc(-c2cc(O)c3ncccc3c2)s1 [Compound 296, N-(3-(dimethylamino)propyl)-5-(8-hydroxyquinolin-6-yl)thiophene-2-carboxamide] | < 500 |
| CC(C)c1cc(N2CCNC(c3ccc(O)cc3Br)C2)nc(N)n1 (centres unmarked) [Compound 164, 4-(4-(2-amino-6-isopropylpyrimidin-4-yl)piperazin-2-yl)-3-bromophenol] | < 500 |
| CCCNC(=O)c1ccc(-c2cc(O)c3ncccc3c2)cc1 [Compound 302, 4-(8-hydroxyquinolin-6-yl)-N-propylbenzamide] | 500 to 5000 |
| CC(C)c1cc(N2CCCC(c3ncc4ccccn34)C2)nc(N)n1 (centres unmarked) [Compound 244, 4-(3-(imidazo[1,5-a]pyridin-3-yl)piperidin-1-yl)-6-isopropylpyrimidin-2-amine] | 500 to 5000 |
| CC(C)c1cc(N2CCCC(O)(c3cnc4ccccn34)C2)nc(N)n1 (centres unmarked) [Compound 243, 1-(2-amino-6-isopropylpyrimidin-4-yl)-3-(imidazo[1,2-a]pyridin-3-yl)piperidin-3-ol] | > 5000 |
| CC(C)c1cc(N2CCN(C)C(c3ccccc3Br)C2)nc(N)n1 (single isomer, unassigned) [Compound 160, (R/S)-4-(3-(2-bromophenyl)-4-methylpiperazin-1-yl)-6-isopropylpyrimidin-2-amine] | 500 to 5000 |
| Brc1ccccc1[C@H]1CN(c2ccnc3[nH]cnc23)CCN1 (racemic) [Compound 34, (S/R)-7-(3-(2-bromophenyl)piperazin-1-yl)-3H-imidazo[4,5-b]pyridine] | > 5000 |
